Source: US5240933A, “14-hydroxy-N-(2-methoxyethyl)-7,8-dihydromorphine and -norisomorphine, processes for the preparation thereof and the use thereof as pharmaceutical compositions” (Boehringer Ingelheim GmbH, priority 1991, dated 1993)

Key:
[1] = phenylquinone writhing test (analgesic effect); assay type: in vivo
Protocol: (§1) In this test, compound 1a according to the invention has a mean effective dose (MED) of 2.5 mg/kg p.o. (64% effect) and compound 1b according to the invention has an MED of 10 mg/kg p.o. (71% effect). […] This small sodium shift indicates the […] nature of the compounds according to the invention.

opiate receptor [2] = experiment: opiate receptor binding test with [^3 H]-naloxon as radioligand
Protocol: as §1

opiate receptor [3] = target: opiate receptor (Homo sapiens, UniProt P35372); experiment: opiate receptor binding test with [^3 H]-dihydromorphine as radioligand
opiate receptor (Homo sapiens, UniProt P35372), sequence (P35372 whole entry): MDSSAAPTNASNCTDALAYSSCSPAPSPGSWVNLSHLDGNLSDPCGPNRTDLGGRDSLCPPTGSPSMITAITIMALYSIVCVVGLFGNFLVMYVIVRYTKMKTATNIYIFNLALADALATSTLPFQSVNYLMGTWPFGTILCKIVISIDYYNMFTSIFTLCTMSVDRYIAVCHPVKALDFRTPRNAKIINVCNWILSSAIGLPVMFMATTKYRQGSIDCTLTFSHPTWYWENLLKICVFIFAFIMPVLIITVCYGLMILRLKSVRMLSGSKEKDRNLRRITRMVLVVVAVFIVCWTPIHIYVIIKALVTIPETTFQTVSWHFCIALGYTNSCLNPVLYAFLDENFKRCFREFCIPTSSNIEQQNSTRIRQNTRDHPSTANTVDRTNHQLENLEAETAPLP
Protocol: as §1

[4] = with the addition of 0.1M sodium chloride

`COCCN1CC[C@]23c4c5ccc(O)c4O[C@H]2[C@H](O)CC[C@@]3(O)[C@H]1C5` [compound 1b, 14-hydroxy-N-(2-methoxyethyl)-7,8-dihydronorisomorphine] gave an effect ([1]; at MED of 10 mg/kg p.o.) of 71%, a Ki (opiate receptor [2]; [4]) of 1.19 nM and a Ki (opiate receptor [2]; without sodium chloride) of 1.07 nM. The Ki (opiate receptor [3]) was 1.79 nM.

For `COCCN1CC[C@]23c4c5ccc(O)c4O[C@H]2[C@@H](O)CC[C@@]3(O)[C@H]1C5` [compound 1a, 14-hydroxy-N-(2-methoxyethyl)-7,8-dihydronormorphine], the effect ([1]; at MED of 2.5 mg/kg p.o.) was 64%, the Ki (opiate receptor [2]; [4]) was 2.39 nM and the Ki (opiate receptor [2]; without sodium chloride) was 2.14 nM. It also gave a Ki (opiate receptor [3]) of 0.91 nM.

Compound `CC(C)Cc1ccc(C(C)C(=O)O)cc1` (stereo not drawn) [Ibuprofen, reference compound] has an effect ([1]; dose of 25 mg/kg p.o., comparison compound) of 65%.
